Test system: T1, trypsin-like protease (trypsin) from Litopenaeus vannamei
T1 construct: native, purified from hepatopancreas (ammonium sulfate, Q-Sepharose FF); single band about 33 kDa on SDS-PAGE
Assay: absorbance at […] nm, Lineweaver-Burk plot
Assay type: biochemical, Penaeus vannamei
Conditions: 20 mM Tris-HCl pH 8.0, 37 °C, 20 min, 0.4-2.4 mM substrate; untreated control (no cold plasma)

Km: 4.16 ± 0.01 mM
SMILES: N=C(N)NCCCC(NC(=O)c1ccccc1)C(=O)Nc1ccc([N+](=O)[O-])cc1 (racemic) [BAPNA]
